Converted amounts (≈) assume the structure as drawn. Starred links: 1 amine or outer side, 2 acyl side, 3 side chain; linkers in the order of their positions; H or OH if unused. Positions of bridges follow the written chain, without caps; N, C: chain ends. Residues, ends and D or L forms follow the SMILES beside them. 2,2'Bipyridine(5,5'-diCH2) = c1cc(-c2ccc(C[*:2])cn2)ncc1C[*:1]; Naphthalene(2,6-diCH2) = c1cc2cc(C[*:2])ccc2cc1C[*:1]
What was measured:
[1] = 48 hours cytotoxicity assay (CellTiter-Glo), liver toxicity; assay type: cell-based, human; details: 48 hours of incubation, CellTiter-Glo; read-out: Inhibitory Concentration at 50% Cytotoxicity (IC50) Human Liver Cells (HepG2)
Procedure, shortened: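 Viability from CellTiter-Glo luminescence after StAMP dilution series or vehicle acted on HepG2 cells for 48 h at 37 °C. Cells were grown in EMEM plus 10% FBS and given 4 h to attach before dosing.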

[2] = 90 minute cytotoxicity assay (LDH release), renal toxicity; assay type: cell-based; details: 90 minutes of incubation, LDH release; read-out: Inhibitory Concentration at 50% Cytotoxicity (IC50) Human Renal Proximal Tubule Epithelial Cells (RPTEC)
Procedure, shortened: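 Released lactate dehydrogenase, read as absorbance at 490 nm after 10 min with assay reagent, serves as read-out. Renal proximal tubule epithelial cells received peptide serial dilutions or vehicle for 90 min at 37° C after overnight plating.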

[3] = tested on: Klebsiella pneumoniae (K. pneumoniae); assay type: cell-based; details: microbroth dilution, 20-24 hours at 37° C.
Procedure, shortened: (§1)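 Visual growth read-out after 20-24 h at 37 °C defines the MIC. Inoculum: 5×10^5 CFU/ml of regrown (3-4 h) bacteria in MHB or MHB II, against serial peptide dilutions, following an adapted CLSI protocol.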

[4] = tested on: Acinetobacter baumannii (A. baumannii); assay type: cell-based; details: microbroth dilution, 20-24 hours at 37° C.
Procedure, shortened: as §1

[5] = tested on: Pseudomonas aeruginosa (P. aeruginosa); assay type: cell-based; details: microbroth dilution, 20-24 hours at 37° C.
Procedure, shortened: as §1

[6] = tested on: Escherichia coli (E. coli); assay type: cell-based; details: microbroth dilution, 20-24 hours at 37° C.
Procedure, shortened: as §1

[7] = tested on: Staphylococcus aureus (S. aureus); assay type: cell-based; details: microbroth dilution, 20-24 hours at 37° C.
Procedure, shortened: as §1

SMILES	IC50 [1] [µg/mL]	IC50 [2] [µg/mL]	Minimum Inhibitory Concentration (MIC) K. pneumoniae [3] [µg/mL]	Minimum Inhibitory Concentration (MIC) A. baumannii [4] [µg/mL]	Minimum Inhibitory Concentration (MIC) P. aeruginosa [5] [µg/mL]	Minimum Inhibitory Concentration (MIC) E. coli [6] [µg/mL]	Minimum Inhibitory Concentration (MIC) S. aureus [7] [µg/mL]
CC[C@H](C)[C@H](NC(=O)[C@H](CC(C)C)NC(=O)[C@H](CC(C)C)NC(=O)[C@H](CC(N)=O)NC(=O)[C@H](CCCCN)NC(=O)[C@@H](NC(=O)[C@H](CCCCN)NC(=O)[C@H](CCCCN)NC(=O)[C@@H]1CSCc2ccc3cc(ccc3c2)CSC[C@H](N)C(=O)N[C@@H]([C@@H](C)CC)C(=O)N[C@@H](Cc2ccccc2)C(=O)N[C@@H](CO)C(=O)N[C@@H](CCCCN)C(=O)N[C@@H](CC(C)C)C(=O)N[C@@H](C)C(=O)N1)[C@@H](C)CC)C(=O)N[C@@H](CO)C(=O)NCC(=O)N[C@@H](CC(C)C)C(=O)N[C@@H](CCCCN)C(=O)NCC(N)=O [compound 50] (H-CIFSKLACKKIKNLLISGLKG-NH2; linker 1-8 via Naphthalene(2,6-diCH2); N-terminus assumed)	103 (≈ 42.4 µM)	17 (≈ 7 µM)	32	8	>64	16	64
CC[C@H](C)[C@H](NC(=O)[C@H](CC(C)C)NC(=O)[C@H](CC(C)C)NC(=O)[C@H](CC(N)=O)NC(=O)[C@H](CCCCN)NC(=O)[C@@H](NC(=O)[C@H](CCCCN)NC(=O)[C@@H]1CSCc2ccc3cc(ccc3c2)CSC[C@H](NC(=O)CN)C(=O)N[C@@H](Cc2ccccc2)C(=O)N[C@@H](CO)C(=O)N[C@@H](CCCCN)C(=O)N[C@@H](CC(C)C)C(=O)N[C@@H](C)C(=O)NCC(=O)N1)[C@@H](C)CC)C(=O)N[C@@H](CO)C(=O)NCC(=O)N[C@@H](CC(C)C)C(=O)N[C@@H](CCCCN)C(=O)NCC(N)=O [compound 52] (H-GCFSKLAGCKIKNLLISGLKG-NH2; linker 2-9 via Naphthalene(2,6-diCH2); N-terminus assumed)	10 (≈ 4.34 µM)	> 200	>64	32	>64	32	>64
CC[C@H](C)[C@H](NC(=O)CN)C(=O)N[C@H]1CSCc2ccc(nc2)-c2ccc(cn2)CSC[C@@H](C(=O)N[C@H](C(=O)N[C@@H](CCCCN)C(=O)N[C@@H](CC(N)=O)C(=O)N[C@@H](CC(C)C)C(=O)N[C@@H](CC(C)C)C(=O)N[C@H](C(=O)N[C@@H](CO)C(=O)NCC(=O)N[C@@H](CC(C)C)C(=O)N[C@@H](CCCCN)C(=O)NCC(N)=O)[C@@H](C)CC)[C@@H](C)CC)NC(=O)[C@H](CCCCN)NC(=O)CNC(=O)[C@H](C)NC(=O)[C@H](CC(C)C)NC(=O)[C@H](CCCCN)NC(=O)[C@H](CO)NC1=O [compound 54] (H-GICSKLAGKCIKNLLISGLKG-NH2; linker 3-10 via 2,2'Bipyridine(5,5'-diCH2); N-terminus assumed)	43 (≈ 18.7 µM)	81 (≈ 35.3 µM)	16	8	64	8	64
CC[C@H](C)[C@H](NC(=O)CN)C(=O)N[C@H]1CSCc2ccc3cc(ccc3c2)CSC[C@@H](C(=O)N[C@H](C(=O)N[C@@H](CCCCN)C(=O)N[C@@H](CC(N)=O)C(=O)N[C@@H](CC(C)C)C(=O)N[C@@H](CC(C)C)C(=O)N[C@H](C(=O)N[C@@H](CO)C(=O)NCC(=O)N[C@@H](CC(C)C)C(=O)N[C@@H](CCCCN)C(=O)NCC(N)=O)[C@@H](C)CC)[C@@H](C)CC)NC(=O)[C@H](CCCCN)NC(=O)CNC(=O)[C@H](C)NC(=O)[C@H](CC(C)C)NC(=O)[C@H](CCCCN)NC(=O)[C@H](CO)NC1=O [compound 55] (H-GICSKLAGKCIKNLLISGLKG-NH2; linker 3-10 via Naphthalene(2,6-diCH2); N-terminus assumed)	53 (≈ 23.4 µM)	23 (≈ 10.1 µM)	16	8	32	8	32
CC[C@H](C)[C@H](NC(=O)CN)C(=O)N[C@@H](Cc1ccccc1)C(=O)N[C@H]1CSCc2ccc(nc2)-c2ccc(cn2)CSC[C@@H](C(=O)N[C@@H](CCCCN)C(=O)N[C@@H](CC(N)=O)C(=O)N[C@@H](CC(C)C)C(=O)N[C@@H](CC(C)C)C(=O)N[C@H](C(=O)N[C@@H](CO)C(=O)NCC(=O)N[C@@H](CC(C)C)C(=O)N[C@@H](CCCCN)C(=O)NCC(N)=O)[C@@H](C)CC)NC(=O)[C@H](CCCCN)NC(=O)[C@H](CCCCN)NC(=O)CNC(=O)[C@H](C)NC(=O)[C@H](CC(C)C)NC(=O)[C@H](CCCCN)NC1=O [compound 57] (H-GIFCKLAGKKCKNLLISGLKG-NH2; linker 4-11 via 2,2'Bipyridine(5,5'-diCH2); N-terminus assumed)	103 (≈ 43.4 µM)	> 200	>64	16	>64	16	>64
CC[C@H](C)[C@H](NC(=O)CN)C(=O)N[C@@H](Cc1ccccc1)C(=O)N[C@H]1CSCc2ccc3cc(ccc3c2)CSC[C@@H](C(=O)N[C@@H](CCCCN)C(=O)N[C@@H](CC(N)=O)C(=O)N[C@@H](CC(C)C)C(=O)N[C@@H](CC(C)C)C(=O)N[C@H](C(=O)N[C@@H](CO)C(=O)NCC(=O)N[C@@H](CC(C)C)C(=O)N[C@@H](CCCCN)C(=O)NCC(N)=O)[C@@H](C)CC)NC(=O)[C@H](CCCCN)NC(=O)[C@H](CCCCN)NC(=O)CNC(=O)[C@H](C)NC(=O)[C@H](CC(C)C)NC(=O)[C@H](CCCCN)NC1=O [compound 58] (H-GIFCKLAGKKCKNLLISGLKG-NH2; linker 4-11 via Naphthalene(2,6-diCH2); N-terminus assumed)	51 (≈ 21.8 µM)	131 (≈ 55.9 µM)	32	4	64	16	>64
CC[C@H](C)[C@H](NC(=O)CN)C(=O)N[C@@H](Cc1ccccc1)C(=O)N[C@@H](CO)C(=O)N[C@@H](CCCCN)C(=O)N[C@@H](CC(C)C)C(=O)N[C@H]1CSCc2ccc3cc(ccc3c2)CSC[C@@H](C(=O)N[C@@H](CC(C)C)C(=O)N[C@H](C(=O)N[C@@H](CO)C(=O)NCC(=O)N[C@@H](CC(C)C)C(=O)N[C@@H](CCCCN)C(=O)NCC(N)=O)[C@@H](C)CC)NC(=O)[C@H](CC(N)=O)NC(=O)[C@H](CCCCN)NC(=O)[C@H]([C@@H](C)CC)NC(=O)[C@H](CCCCN)NC(=O)[C@H](CCCCN)NC(=O)CNC1=O [compound 87] (H-GIFSKLCGKKIKNCLISGLKG-NH2; linker 7-14 via Naphthalene(2,6-diCH2))	54 (≈ 22.9 µM)	44 (≈ 18.7 µM)	8	4	8	4	64
CC[C@H](C)[C@H](NC(=O)CN)C(=O)N[C@@H](Cc1ccccc1)C(=O)N[C@@H](CO)C(=O)N[C@@H](CCCCN)C(=O)N[C@@H](CC(C)C)C(=O)N[C@H]1CSCc2ccc(nc2)-c2ccc(cn2)CSC[C@@H](C(=O)N[C@@H](CC(C)C)C(=O)N[C@H](C(=O)N[C@@H](CO)C(=O)NCC(=O)N[C@@H](CC(C)C)C(=O)N[C@@H](CCCCN)C(=O)NCC(N)=O)[C@@H](C)CC)NC(=O)[C@H](CC(N)=O)NC(=O)[C@H](CCCCN)NC(=O)[C@H]([C@@H](C)CC)NC(=O)[C@H](CCCCN)NC(=O)[C@H](CCCCN)NC(=O)CNC1=O [compound 89] (H-GIFSKLCGKKIKNCLISGLKG-NH2; linker 7-14 via 2,2'Bipyridine(5,5'-diCH2))	62 (≈ 26 µM)	80 (≈ 33.5 µM)	16	4	32	4	>64

— US20240391965A1, “STAPLED ANTIMICROBIAL PEPTIDES (STAMPS) AND USES THEREOF” (Lytica Therapeutics, Inc., priority 2021, published 2024)
